The target in this experiment is T1, rat CB2 receptor (rCB2) (Rattus norvegicus, UniProt Q9QZN9).
T1 sequence (Q9QZN9 1-360): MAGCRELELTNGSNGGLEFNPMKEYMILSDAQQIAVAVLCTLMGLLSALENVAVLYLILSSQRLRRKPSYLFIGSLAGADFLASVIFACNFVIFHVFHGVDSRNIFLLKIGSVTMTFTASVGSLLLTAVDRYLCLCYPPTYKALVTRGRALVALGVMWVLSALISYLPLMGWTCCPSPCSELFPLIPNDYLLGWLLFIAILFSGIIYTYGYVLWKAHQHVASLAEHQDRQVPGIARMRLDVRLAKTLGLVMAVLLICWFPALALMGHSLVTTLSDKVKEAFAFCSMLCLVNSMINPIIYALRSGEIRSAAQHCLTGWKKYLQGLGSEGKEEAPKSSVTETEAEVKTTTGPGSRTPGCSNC
For orientation: EC50 means the midpoint of the concentration-response curve. A higher EC50 goes with a less potent agent. For `CNC(=O)[C@@H](NC(=O)c1nc(-c2ccccc2)n2c1CN(S(=O)(=O)C1CC1)CC2)C(C)(C)C` [Compound 100, (S)-7-(cyclopropylsulfonyl)-N-(3,3-dimethyl-1-(methylamino)-1-oxobutan-2-yl)-3-phenyl-5,6,7,8-tetrahydroimidazo[1,5-a]pyrazine-1-carboxamide], the EC50 lay within 10 to 100 nM.
In the case of `CNC(=O)[C@@H](NC(=O)c1nc(-c2ccccc2)n2c1CN(S(=O)(=O)c1ccc(Cl)cc1)CC2)C(C)(C)C` [Compound 106, (S)-7-(4-chlorophenylsulfonyl)-N-(3,3-dimethyl-1-(methylamino)-1-oxobutan-2-yl)-3-phenyl-5,6,7,8-tetrahydroimidazo[1,5-a]pyrazine-1-carboxamide], the EC50 was in the range of 10 to 100 nM.
With `CNC(=O)[C@@H](NC(=O)c1nc(-c2ccccc2)n2c1CN(C(=O)C(C)(C)C)CC2)C(C)(C)C` [Compound 190, (S)-N-(3,3-dimethyl-1-(methylamino)-1-oxobutan-2-yl)-3-phenyl-7-pivaloyl-5,6,7,8-tetrahydroimidazo[1,5-a]pyrazine-1-carboxamide], the concentration for a half-maximal effect (EC50) was in the range of 10 to 100 nM.
Under `CC(C)(C)c1noc([C@@H](NC(=O)c2nc(-c3ccccc3)n3c2CN(C2CC2)CC3)C(C)(C)C)n1` [Compound 284, (S)-N-(1-(3-tert-butyl-1,2,4-oxadiazol-5-yl)-2,2-dimethylpropyl)-7-cyclopropyl-3-phenyl-5,6,7,8-tetrahydroimidazo[1,5-a]pyrazine-1-carboxamide] stands 0.1 to 10 nM; under `CNC(=O)[C@@H](NC(=O)c1nc(-c2ccccc2)n2c1CN(CC(C)C)CC2)C(C)(C)C` [Compound 148, (S)-N-(3,3-dimethyl-1-(methylamino)-1-oxobutan-2-yl)-7-isobutyl-3-phenyl-5,6,7,8-tetrahydroimidazo[1,5-a]pyrazine-1-carboxamide], 10 to 100 nM; under `CCN1CCn2c(-c3ccccc3)nc(C(=O)NCC3CCOCC3)c2C1` [Compound 168, 7-ethyl-3-phenyl-N-((tetrahydro-2H-pyran-4-yl)methyl)-5,6,7,8-tetrahydroimidazo[1,5-a]pyrazine-1-carboxamide], 10 to 100 nM.
On to `CCN1CCn2c(-c3ccccc3)nc(C(=O)N[C@H](C(=O)NC)C(C)(C)C)c2C1` [Compound 149, (S)-N-(3,3-dimethyl-1-(methylamino)-1-oxobutan-2-yl)-7-ethyl-3-phenyl-5,6,7,8-tetrahydroimidazo[1,5-a]pyrazine-1-carboxamide], for which the EC50 was in the range of 10 to 100 nM.
Take `CCc1nc(C(=O)N[C@H](C(=O)NC)C(C)(C)C)c2n1CCN(C)C2` [Compound 310, (S)-N-(3,3-dimethyl-1-(methylamino)-1-oxobutan-2-yl)-3-ethyl-7-methyl-5,6,7,8-tetrahydroimidazo[1,5-a]pyrazine-1-carboxamide]: the concentration giving a half-maximal response (EC50) lay in the range of 10 to 100 nM.
`CC(C)CN1CCn2c(-c3ccccc3)nc(C(=O)NC3C4(C)CCC(C4)C3(C)C)c2C1` (stereo not drawn) [Compound 142, 7-isobutyl-3-phenyl-N-(1,3,3-trimethylbicyclo[2.2.1]heptan-2-yl)-5,6,7,8-tetrahydroimidazo[1,5-a]pyrazine-1-carboxamide] displayed a 50% effective concentration (EC50) of 10 to 100 nM.
`CCN1CCn2c(-c3ccc(Cl)cc3)nc(C(=O)N[C@H](CO)C(C)(C)C)c2C1` [Compound 161, (S)-3-(4-chlorophenyl)-7-ethyl-N-(1-hydroxy-3,3-dimethylbutan-2-yl)-5,6,7,8-tetrahydroimidazo[1,5-a]pyrazine-1-carboxamide]: the concentration giving a half-maximal response (EC50) lay in the range of 10 to 100 nM.
Consider `CC12CCC(C1)C(C)(C)C2NC(=O)c1nc(-c2ccccc2)n2c1CN(C(=O)C1CC1)CC2` (stereo not drawn) [Compound 119, 7-(cyclopropanecarbonyl)-3-phenyl-N-(1,3,3-trimethyl-bicyclo[2.2.1]heptan-2-yl)-5,6,7,8-tetrahydroimidazo[1,5-a]pyrazine-1-carboxamide], for which the EC50 lay within 10 to 100 nM.
`CNC(=O)[C@@H](NC(=O)c1nc(-c2ccccc2)n2c1CN(S(=O)(=O)c1ccccc1F)CC2)C(C)(C)C` [Compound 98, (S)-N-(3,3-dimethyl-1-(methylamino)-1-oxobutan-2-yl)-7-(2-fluorophenylsulfonyl)-3-phenyl-5,6,7,8-tetrahydroimidazo[1,5-a]pyrqazine-1-carboxamide] gave a half-maximal effective concentration (EC50) of 10 to 100 nM.
`CNC(=O)[C@@H](NC(=O)c1nc(-c2ccc(C)cc2F)n2c1CN(C)CC2)C(C)(C)C` [Compound 249, (S)-N-(3,3-dimethyl-1-(methylamino)-1-oxobutan-2-yl)-3-(2-fluoro-4-methylphenyl)-7-methyl-5,6,7,8-tetrahydroimidazo[1,5-a]pyrazine-1-carboxamide] gave an EC50 of 10 to 100 nM.
The value for `CNC(=O)[C@@H](NC(=O)c1nc(-c2cc(C(F)(F)F)ccc2F)n2c1CN(C)CC2)C(C)(C)C` [Compound 245, (S)-N-(3,3-dimethyl-1-(methylamino)-1-oxobutan-2-yl)-3-(2-fluoro-5-(trifluoromethyl)phenyl)-7-methyl-5,6,7,8-tetrahydroimidazo[1,5-a]pyrazine-1-carboxamide] was 10 to 100 nM.
As for `CNC(=O)[C@@H](NC(=O)c1nc(-c2cc(C)ccc2F)n2c1CN(C)CC2)C(C)(C)C` [Compound 251, (S)-N-(3,3-dimethyl-1-(methylamino)-1-oxobutan-2-yl)-3-(2-fluoro-5-methylphenyl)-7-methyl-5,6,7,8-tetrahydroimidazo[1,5-a]pyrazine-1-carboxamide], the half-maximal effective concentration (EC50) lay within 10 to 100 nM.
Regarding `Cc1noc([C@@H](NC(=O)c2nc(-c3ccccc3)n3c2CN(CC2CC2)CC3)C(C)(C)C)n1` [Compound 88, (S)-7-(cyclopropylmethyl)-N-(2,2-dimethyl-1-(3-methyl-1,2,4-oxadiazol-5-yl)propyl)-3-phenyl-5,6,7,8-tetrahydroimidazo[1,5-a]pyrazine-1-carboxamide], the EC50 fell in the range of 10 to 100 nM.
`Cc1ccc(-c2nc(C(=O)N[C@H](c3nc(C)no3)C(C)(C)C)c3n2CCCNC3)c(F)c1` [Compound 520, (S)-N-(2,2-dimethyl-1-(3-methyl-1,2,4-oxadiazol-5-yl)propyl)-3-(2-fluoro-4-methylphenyl)-6,7,8,9-tetrahydro-5H-imidazo[1,5-a][1,4]diazepine-1-carboxamide] registered a concentration for a half-maximal effect (EC50) of 10 to 100 nM.
Take `Cc1ccc(-c2nc(C(=O)N[C@H](c3nc(C)no3)C(C)(C)C)c3n2CCCN(C)C3)c(F)c1` [Compound 522, (S)-N-(2,2-dimethyl-1-(3-methyl-1,2,4-oxadiazol-5-yl)propyl)-3-(2-fluoro-4-methylphenyl)-8-methyl-6,7,8,9-tetrahydro-5H-imidazo[1,5-a][1,4]diazepine-1-carboxamide]: the EC50 lay in the range of 10 to 100 nM.
For the molecule `CC(C)CN1CCn2c(-c3ccccc3)nc(C(=O)N[C@H](C(=O)N(C)C)C(C)(C)C)c2C1` [Compound 80, (S)-N-(1-(dimethylamino)-3,3-dimethyl-1-oxobutan-2-yl)-7-isobutyl-3-phenyl-5,6,7,8-tetrahydroimidazo[1,5-a]pyrazine-1-carboxamide], the concentration for a half-maximal effect (EC50) lay within 10 to 100 nM.
The value for `CNC(=O)[C@@H](NC(=O)c1nc(-c2ccccc2)n2c1CN(C1CC1)CC2)C(C)(C)C` [Compound 197, (S)-7-cyclopropyl-N-(3,3-dimethyl-1-(methylamino)-1-oxobutan-2-yl)-3-phenyl-5,6,7,8-tetrahydroimidazo[1,5-a]pyrazine-1-carboxamide] was 10 to 100 nM; that for `CC(C)CN1CCn2c(-c3ccccc3)nc(C(=O)N[C@H](CO)C(C)(C)C)c2C1` [Compound 60, (S)-N-(1-hydroxy-3,3-dimethylbutan-2-yl)-7-isobutyl-3-phenyl-5,6,7,8-tetrahydroimidazo[1,5-a]pyrazine-1-carboxamide] was 10 to 100 nM.
`CC(C)CN1CCn2c(-c3ccccc3)nc(C(=O)N[C@@H](C)C(C)(C)C)c2C1` [Compound 53, (S)-N-(3,3-dimethylbutan-2-yl)-7-isobutyl-3-phenyl-5,6,7,8-tetrahydroimidazo[1,5-a]pyrazine-1-carboxamide] had a concentration giving a half-maximal response (EC50) of 10 to 100 nM.
As for `CCS(=O)(=O)N1CCn2c(-c3ccccc3)nc(C(=O)NC3C4(C)CCC(C4)C3(C)C)c2C1` (stereo not drawn) [Compound 112, 7-(ethylsulfonyl)-3-phenyl-N-(1,3,3-trimethylbicyclo[2.2.1]heptan-2-yl)-5,6,7,8-tetrahydroimidazo[1,5-a]pyrazine-1-carboxamide], the 50% effective concentration (EC50) was in the range of 10 to 100 nM.
As for `Cc1noc([C@@H](NC(=O)c2nc(-c3ccccc3)n3c2CN(C)CC3)C(C)(C)C)n1` [Compound 87, (S)-N-(2,2-dimethyl-1-(3-methyl-1,2,4-oxadiazol-5-yl)propyl)-7-methyl-3-phenyl-5,6,7,8-tetrahydroimidazo[1,5-a]pyrazine-1-carboxamide], the EC50 fell in the range of 10 to 100 nM.
For `Cc1nnc([C@@H](NC(=O)c2nc(-c3ccccc3)n3c2CN(CC(C)C)CC3)C(C)(C)C)o1` [Compound 202, (S)-N-(2,2-dimethyl-1-(5-methyl-1,3,4-oxadiazol-2-yl)propyl)-7-isobutyl-3-phenyl-5,6,7,8-tetrahydroimidazo[1,5-a]pyrazine-1-carboxamide], the 50% effective concentration (EC50) lay within 10 to 100 nM.
Consider `C[C@@H](NC(=O)c1nc(-c2ccccc2)n2c1CN(C(=O)C(C)(C)C)CC2)C1CCCCC1` [Compound 133, (R)-N-(1-cyclohexylethyl)-3-phenyl-7-pivaloyl-5,6,7,8-tetrahydroimidazo[1,5-a]pyrazine-1-carboxamide], for which the 50% effective concentration (EC50) was in the range of 10 to 100 nM.
Consider `CC(C)(C)OC(=O)N1CCn2c(-c3ccccc3)nc(C(=O)NC3CCCCC3)c2C1` [Compound 36, tert-butyl 1-(cyclohexylcarbamoyl)-3-phenyl-5,6-dihydroimidazo[1,5-a]pyrazine-7(8H)-carboxylate], for which the concentration giving a half-maximal response (EC50) fell in the range of 10 to 100 nM.
